Results taken from patent US20240181022A1, “AMURINS LYSINS, AND LYSIN-ANTIMICROBIAL PEPTIDE (AMP) CONSTRUCTS ACTIVE AGAINST GRAM-NEGATIVE BACTERIA” (priority 2021, published 2024).
Converted amounts (≈) assume the structure as drawn. Read-outs that look alike come from different tables or passages of the source.

How the values were obtained:
A. xylosoxidans = assay: Serial passage resistance development study, A. xylosoxidans; format: cell-based, Achromobacter xylosoxidans; details: for change in MIC over serial passage: A. xylosoxidans; for MIC: Achromobacter xylosoxidans
[1] = tested on: A. baumannii (ATCC BAA-747); assay: microbe, parasite or virus in culture; format: cell-based, Acinetobacter baumannii
S. maltophilia = assay: Serial passage resistance development study, S. maltophilia; format: cell-based, Stenotrophomonas maltophilia; details: for MIC: Stenotrophomonas maltophilia
P. aeruginosa [2] = details: […], before serial passage
E. coli (ATCC 25922) = assay: microbe, parasite or virus in culture; format: cell-based, Escherichia coli
P. aeruginosa [3] = assay: Serial passage resistance development study, P. aeruginosa; format: cell-based, Pseudomonas aeruginosa; details: Pseudomonas aeruginosa
[4] = tested on: K. pneumoniae (1_1_5 HM-44); assay: microbe, parasite or virus in culture; format: cell-based, Klebsiella pneumoniae
E. cloacae (ATCC 13047) = assay: microbe, parasite or virus in culture; format: cell-based, Enterobacter cloacae

For `C[C@H]1COc2c(N3CCN(C)CC3)c(F)cc3c(=O)c(C(=O)O)cn1c23` [levofloxacin, reference compound], the “change in MIC over serial passage” value (A. xylosoxidans; day 28) was 128 fold, the “change in MIC over serial passage” value (A. xylosoxidans; day 28, another instance) was 64 fold and the MIC (A. xylosoxidans; 672 h, read-out: MIC after 28-day serial passage, A. xylosoxidans) was 32 µg/mL (≈ 88.6 µM). The MIC (A. xylosoxidans; 672 h, read-out: MIC after 28-day serial passage, A. xylosoxidans, another instance) was 128 µg/mL (≈ 354 µM), the MIC (A. xylosoxidans; read-out: MIC at start of serial passage, A. xylosoxidans) was 0.25 µg/mL (≈ 0.692 µM) and the MIC (A. xylosoxidans; read-out: MIC at start of serial passage, A. xylosoxidans, another instance) was 2 µg/mL (≈ 5.53 µM). For the same compound, the “change in MIC over 28-day serial passage” value ([1]; A. baumannii (ATCC BAA-747)) was 128 fold, the MIC ([1]; Acinetobacter baumannii, ATCCBAA747) was 0.125 µg/mL (≈ 0.346 µM) and the “change in MIC over serial passage” value (S. maltophilia; S. maltophilia, day 28, triplicate) was “up to 256 fold”. The MIC (S. maltophilia; 672 h, read-out: MIC after 28-day serial passage) was 64 µg/mL (≈ 177 µM), the MIC (S. maltophilia; read-out: MIC at start of serial passage) was 0.25 µg/mL (≈ 0.692 µM) and the MIC (P. aeruginosa [2]) was 1 µg/mL (≈ 2.77 µM). The “change in MIC over 28-day serial passage” value (E. coli (ATCC 25922); E. coli (ATCC 25922)) was 128 fold, the MIC (E. coli (ATCC 25922); Escherichia coli, ATCC25922) was 0.0312 µg/mL (≈ 0.0865 µM) and the MIC (P. aeruginosa [3]) was 4 µg/mL (≈ 11.1 µM). The “change in MIC over 28-day serial passage” value ([4]; K. pneumoniae (1_1_5 HM-44)) was “up to 512 fold”, the MIC ([4]; Klebsiella pneumoniae) was 0.0312 µg/mL (≈ 0.0865 µM) and the “change in MIC over 28-day serial passage” value (E. cloacae (ATCC 13047); E. cloacae (ATCC 13047)) was 256 fold. For the same compound, the MIC (E. cloacae (ATCC 13047); Enterobacter cloacae, ATCC13047) was 0.0625 µg/mL (≈ 0.173 µM).
